Data on eight substances can be found in patent US11186613B2, “Solid-phase support comprising IgG-binding peptide, and method for separating IgG” (Kagoshima University, priority 2016, dated 2021).

Read-outs that look alike come from different tables or passages of the source. Bridges are numbered along the chain shown (N, C = ends). Primed or numbered codes have the meaning given here. Where no end group is shown, it is not given here. The star is where a group is joined. Biotin = O=C1N[C@H]2[C@H](CS[C@H]2CCCCC(=O)*)N1; Fmoc = O=C(OCC1c2ccccc2-c2ccccc21)*; PEG4′ = not defined here

One data set has as its target IgG. In words: Affinity analysis of IgG-binding peptides by surface plasmon resonance (BIAcore T200), IgG immobilized on sensor chip. Particulars: for ka / kd: peptide 10 nM to 2 μM, HBS-EP buffer pH 7.0. The method, then: Affinity analysis of the purified IgG-binding peptide was carried out according to the following method. Equal amounts of 0.4 M 1-ethyl-3-(3-dimethylaminopropyl)-carbodiimide (EDC) and 0.1 M sulfo-N-hydroxysuccinimide (sulfo-NHS) were mixed and injected onto a CMS sensor chip, which was set in BIAcoreT200 (GE healthcare), at a flow rate of […] for 7 min to activate the sensor chip, and then the IgG was immobilized on the sensor chip under conditions of pH 4.0 (10 mM Na acetate) so as to give an immobilized amount of 4000 to 5000 in RU value. The binding reaction was monitored by injecting the peptide in a concentration from 10 nM to 2 μM at a flow rate of […] for 180 sec while using an HBS-EP buffer (0.01 M HEPES, 0.15 M NaCl, 0.005% TWEEN 20, 3 mM EDTA, pH 7.0), and then the dissociation reaction was measured by washing with the buffer for 600 sec. Binding parameters were analyzed using BlAevalution T100 software.
(Surface plasmon resonance follows binding to a sensor surface in real time, without labels.)

The test system of data set [1] is human serum-derived γ-globulin. In words: Evaluation of alkali resistance: DBC after repeated 0.1 M sodium hydroxide treatment. Particulars: five 0.1 M sodium hydroxide treatments. In kind it is physicochemical. The procedure:
FIG. 4 illustrates measurement results of DBC of an IgG-binding peptide cross-linked via a linker, prepared in Example 2, and an IgG-binding peptide cross-linked by disulfide, prepared in Comparative Example 1, both of which were treated with sodium hydroxide.
To a 1-mg peptide-immobilized 1-mL column prepared by the same method as in Example 3, 5 mL of 0.1 M sodium hydroxide solution was fed. The column was then washed with the adsorption solution and DBC was measured at a flow rate of 1 mL/min as in Example 5. Subsequently, a cycle of the treatment with the sodium hydroxide solution and the DBC measurement was repeated five times to evaluate the alkali resistance. The variation rate of DBC was determined based on the DBC before the sodium hydroxide treatment as 100%.
As Comparative Example 1, a column with 1 mg of a peptide cross-linked by a disulfide bond immobilized thereon was prepared, and the alkali resistance evaluation was carried out as in Example 5.

For data set [2], the system named is human serum-derived γ-globulin. The experiment in a line: Separation of human serum-derived γ-globulin on peptide-immobilized column, acidic elution. Particulars: 1 mg peptide on NHS-activated 1-mL column; elution 20 mM citric acid pH 2.5. The method, then: FIG. 1 illustrates a result of a case where human serum-derived γ-globulin (Wako) was adsorbed to a column with immobilized peptide prepared in Example 3 and eluted with an acidic elution solution (20 mM citric acid, pH 2.5). The horizontal axis represents the volume of the elution liquid and the vertical axis represents the […] concentration measured by absorbance at 280 nm.
A dichloroacetone-cross-linked peptide was immobilized to an NHS-activated prepacked column (GE Healthcare) to carry out various evaluations to assess whether the dichloroacetone-cross-linked peptide can be used as an affinity ligand for human antibody purification.
The peptide-immobilized column was prepared by the following procedures. A syringe was used to feed a solution.
To a 1-mL capacity NHS-activated prepacked column, 5 mL of 1 mM hydrochloric acid was fed to remove an isopropanol solution in the column. […]
The prepared peptide-immobilized column was connected to a liquid chromatography system AKTAexplore (GE Healthcare) and equilibrated with the adsorption solution. […] The elution of proteins from the column was detected by absorbance at 280 nm. […]

Data set [3] relates to human-derived serum γ-globulin. The experiment in a line: Competitive elution with peptide from peptide-immobilized column, SDS-PAGE. Conditions: 2.5 mL of 0.4 mg/mL peptide solution; bands around 25 kDa and 50 kDa on SDS-PAGE. The method, then:
FIG. 2 illustrates results of SDS-PAGE of fractions fractionated in 0.5 mL that are obtained by eluting proteins with citric acid or the IgG-binding peptide from the column with immobilized peptide prepared in Example 3. The proteins were detected by CBB staining.
To the column prepared by the same method as in Example 3, 1 mg of human-derived serum γ-globulin was fed to adsorb the globulin thereto. The column was washed with the adsorption solution, and then 2.5 mL of a 0.4 mg/mL solution of Peptide a prepared in Example 2 dissolved in the adsorption solution was fed to the column. Each fraction fractionated in 0.5 mL was subjected to SDS-PAGE under reductive conditions in accordance with an ordinary method. Proteins were detected by CBB staining. For comparison, similar operations were carried out also for citric acid elution.

[4] abbreviates: SPR, 1:1 binding model, read-out: KD (nM) 1:1 binding.
Where [5] appears, read: SPR, equilibrium value, read-out: KD (nM) Equilibrium value.

As to “DCAYH(Xaa1)GELVWCT (SEQ ID NO:1, wherein Xaa1 was arginine and the C-terminus was amidated) ({Biotin-PEG4′}-DCAYHRGELVWCT-NH2; disulfide 2-12 (inferred)) [SEQ ID NO: 1, wherein Xaa1 is R]”, the Kd on IgG (setting [4]) was found to be 54 nM; at IgG (setting [5]) it was 64.5 nM. Besides, the ka in the data set with IgG (SPR) is 4.57E+05. The kd at IgG (SPR) came out at 0.0248.
For “Fmoc-HN-PEG4-GPDCAYH(Xaa1)GELVWCTFH (SEQ ID NO:2, wherein Xaa1 was arginine and the C-terminus was amidated) ({Fmoc-PEG4′}-GPDCAYHRGELVWCTFH-NH2; cysteine pairing not given here) [Peptide b]”, the dissociation constant (Kd) at IgG (measured as in Example 1, read-out: Kd (affinity for IgG)) came to 1000 nM.
Regarding “GPDCAYH(Xaa1)GELVWCTFH (SEQ ID NO:2, wherein Xaa1 was acetylated lysine, and the C-terminus was amidated) (GPDCAYHXGELVWCTFH; Xaa1=acetyl-lysine; C-terminal amide; (8)..(8) Xaa is arginine, lysine, leucine, asparagine, or derivative thereof) [SEQ ID NO: 2, wherein Xaa1 is K (Acetyl)]”, the Kd worked out at 2700 nM on IgG (setting [4]) and 2800 nM on IgG (setting [5]). The substance also gave a ka in the data set on IgG (SPR) of 4.4E+05. Further, on IgG (SPR), the kd is given as 0.12.
In the case of “GPDCAYH(Xaa1)GELVWCTFH (SEQ ID NO:2, wherein Xaa1 was arginine and the C-terminus was amidated) (GPDCAYHRGELVWCTFH-NH2; not fully specified (N-terminus, bridges); printed as GPDCAYH(Xaa1)GELVWCTFH; cysteine pairing not given here) [SEQ ID NO: 2, wherein Xaa1 is R]”, at IgG (setting [4]), the Kd is 9.1 nM. For the same substance, the Kd at IgG (setting [5]) came out at 10 nM. In the data set with IgG (SPR), the ka worked out at 1.57E+06 and the kd is listed as 0.0144.
Turning to “GPDCAYH(Xaa1)GELVWCTFH (SEQ ID NO:2, wherein Xaa1 was arginine and the C-terminus was amidated) ({Biotin-PEG4′}-GPDCAYHRGELVWCTFH-NH2; bridge 4-14; not fully specified (bridges); printed as GPDCAYH(Xaa1)GELVWCTFH) [Peptide a, N-terminally PEG4-modified, C-terminally amidated; cysteine sulfide groups connected via linker from 1,3-dichloro-2-propanone (linker drawing 11)]”, the “alkali resistance (change in DBC by sodium hydroxide treatments)” value in data set [1] is “no decrease in DBC”. Further, in data set [2], the “usability as ligand for an affinity column (adsorption and acid elution of γ-globulin)” value is “can be used as a ligand for an affinity column”. Moreover, the “elution of adsorbed γ-globulin by peptide solution” value in data set [3] is recorded as “can be used as a means for elution”.
Turning to “GPDCAYH(Xaa1)GELVWCTFH (SEQ ID NO:2, wherein Xaa1 was leucine, and the C-terminus was amidated) ({Biotin-PEG4′}-GPDCAYHLGELVWCTFH-NH2; disulfide 4-14 (inferred)) [SEQ ID NO: 2, wherein Xaa1 is L]”, the Kd on IgG (setting [4]) was found to be 8.1 nM. Besides, in the data set on IgG (SPR), the ka was 1.7E+05 and the kd is 0.014.
As for “GPDCAYH(Xaa1)GELVWCTFH (SEQ ID NO:2, wherein Xaa1 was lysine, and the C-terminus was amidated) (GPDCAYHXGELVWCTFH; Xaa1=K; C-terminal amide; (8)..(8) Xaa is arginine, lysine, leucine, asparagine, or derivative thereof) [SEQ ID NO: 2, wherein Xaa1 is K]”, the Kd on IgG (setting [4]) came out at 156 nM. Also, the Kd on IgG (setting [5]) is 131 nM. In the data set on IgG (SPR), this substance yielded a ka of 1.25E+06 and a kd of 0.195.
The matching figures for “GPRCAYH(Xaa1)GELVWCSFH (SEQ ID NO:4, wherein Xaa1 was arginine and the C-terminus was amidated) (GPRCAYHRGELVWCSFH-NH2; not fully specified (N-terminus, bridges); cysteine pairing not given here) [SEQ ID NO: 4, wherein Xaa1 is R]”: 42 nM, 56 nM, 8.40E+05 and 0.0353.

The term Kd denotes the concentration at which binding is half-saturated.
